The target of one data set is T1, xCT (SLC7A11) (Homo sapiens, UniProt Q9UPY5).
T1 construct: NCI-H460 tumor cells were co-incubated with the F-18 labeled tracer and several cold derivatives; endogenous in cells; host or cells: NCI-H460 tumor cells
T1 sequence (Q9UPY5 1-501): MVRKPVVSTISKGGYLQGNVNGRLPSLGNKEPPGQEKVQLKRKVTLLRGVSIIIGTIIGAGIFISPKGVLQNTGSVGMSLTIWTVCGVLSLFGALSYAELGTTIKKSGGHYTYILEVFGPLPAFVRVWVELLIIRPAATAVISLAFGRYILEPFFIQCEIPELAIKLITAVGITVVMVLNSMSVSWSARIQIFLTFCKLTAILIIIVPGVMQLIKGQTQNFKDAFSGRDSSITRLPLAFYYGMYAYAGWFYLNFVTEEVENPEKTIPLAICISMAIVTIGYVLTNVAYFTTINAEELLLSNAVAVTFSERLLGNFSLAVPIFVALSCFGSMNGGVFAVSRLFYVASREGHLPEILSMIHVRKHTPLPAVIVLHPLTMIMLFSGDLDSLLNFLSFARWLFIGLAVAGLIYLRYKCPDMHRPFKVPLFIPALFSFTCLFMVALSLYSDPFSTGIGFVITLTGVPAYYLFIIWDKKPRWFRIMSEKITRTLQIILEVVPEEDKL
T1 sequence (P08195 1-529 partner): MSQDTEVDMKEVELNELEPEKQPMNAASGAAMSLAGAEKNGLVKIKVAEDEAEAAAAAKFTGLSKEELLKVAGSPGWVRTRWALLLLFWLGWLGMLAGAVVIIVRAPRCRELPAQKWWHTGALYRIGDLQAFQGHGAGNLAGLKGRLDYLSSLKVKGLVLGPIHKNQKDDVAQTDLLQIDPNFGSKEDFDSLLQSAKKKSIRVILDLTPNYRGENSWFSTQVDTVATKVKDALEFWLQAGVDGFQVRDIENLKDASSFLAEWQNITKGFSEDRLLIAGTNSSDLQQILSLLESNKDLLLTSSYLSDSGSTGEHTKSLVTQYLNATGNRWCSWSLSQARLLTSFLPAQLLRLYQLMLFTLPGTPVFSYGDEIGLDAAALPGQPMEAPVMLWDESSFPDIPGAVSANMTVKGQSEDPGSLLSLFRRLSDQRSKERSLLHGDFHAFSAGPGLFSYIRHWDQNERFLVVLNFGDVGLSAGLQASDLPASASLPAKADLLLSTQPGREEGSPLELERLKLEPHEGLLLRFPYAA
Put plainly: Competition profile indicating uptake via xCT (SLC7A11). It is filed as cell-based. Particulars: NCI-H460 cells; for reduction of [^18F]-12 uptake by excess competitor: competitor 1 mM. The procedure:
For determination of the responsible uptake mechanism, NCI-H460 tumor cells were co-incubated with the F-18 labeled tracer and several cold derivatives. These derivatives were used at a concentration of 1 mM, which is a large excess compared to the tracer. L-Glutamic acid, L-cystine, Carboxyphenylglycine (CPG) were used as competitors. In addition, also D-Glutamic acid, as well as L-aspartic acid and D-aspartic acid were used in this competition experiments. […] The same experiments were performed using [^18F]-1, [^18F]-4, [^18F]-9, [^18F]-8, [^18F]-25 and [^18F]-22.

The test system of data set [1] is NCI-H460 (human NSCLC) cells. Description: In vitro cell-uptake study: blocking of radiolabeled glutamate derivative uptake. Format: cell-based. Particulars: compound 1 mM, 30 minutes, mean ± SD, without compound = 100%. The procedure:
The ability of compounds from the present invention to compete with radiolabeled glutamate derivatives for uptake into tumor cells was examined. NCI-H460 (human NSCLC) cells, grown adherently in 48 well plates were used for these competition-experiments. Approximately 100.000 cells were co-incubated in PBS-buffer containing 0.1% BSA with a radiolabeled Glutamic acid derivative and several compounds, which were used at a concentration of 1 mM for 30 minutes. After this time, the cell bound radioactivity was determined.

Data set [2] deals with NCI-H460 tumor. Put plainly: In vivo biodistribution in NCI-H460 tumor bearing mice. The settings on record: for T/Blood / T/Muscle: 1 h post injection. The procedure: (§1) To test the pharmacokinetic properties of compounds from the present invention, all F18-labeled compounds were examined by biodistribution studies in NCI-H460 tumor bearing mice. Female NMRI (nu/nu) mice were inoculated with 5×10^6 NCI-H460 tumor cells 8 to 10 days before the biodistribution studies. 185 kBq of activity of the fluorinated compound was injected and at least n=3 mice were used for every time point. After injection of the F18-labeled compound, mice were sacrificed at defined time-points. All organs were removed and radioactivity was determined using a γ-counter.
To compare the tumor uptake and retention of radioactivity of different ^18F-labeled derivatives from the present invention, biodistribution studies were performed in NCI-H460 tumor bearing NMRI (nu/nu) mice as described above.
To compare the kidney clearance of several ^18F-labeled derivatives from the present invention, biodistribution studies were performed in NCI-H460 tumor bearing female NMRI (nu/nu) mice as described above. […] After 2 h p.i., less than 1% ID/g can be found in the kidneys.
For comparison of pancreas uptake and clearance of several ^18F-labeled derivatives from the present invention, biodistribution studies were performed in NCI-H460 tumor bearing NMRI (nu/nu) mice as described above. […] After 2 h p.i., less than 2% ID/g can be found in the pancreas.
as §1, with “and” for “for every time point. After injection of the F18-labeled compound, mice were”, “time-points raning from 15 min pi up to 2 h p.i.” for “time-points.”, “γ-counter. […] High tumor uptake values of >3% ID/g were obtained with various compounds from the present invention.” for “γ-counter.”

The subject of data set [3] is NCI-H460 tumor. Put plainly: PET imaging in NCI-H460 tumor bearing nude-rats. Particulars: PET ROI analysis, 1 h p.i. It is filed as in vivo. The procedure: c) Beside PET-imaging studies in mice, also the imaging properties of [^18F]-12 in rats were examined. NCI-H460 tumor cells were inoculated into the right flank of nude-rats (RH-Foxn1 nu/nu) 8 to 10 days before the PET study. PET images were acquired at 60 min after injection of approximately 10 MBq for 10 minutes. The H460 tumor was nicely visible (0.9% ID/g as determined by ROI analysis). Beside some minor uptake into the liver and kidneys due to the excretion of the compound, no uptake into other non-target tissues was observed.
To test the imaging properties, compounds from the present invention were evaluated in PET imaging studies using tumor bearing rats. NCI-H460 tumor cells were inoculated into the right flank of nude-rats (RH-Foxn1 nu/nu) 8 to 10 days before the PET study. PET images were acquired at 60 min after injection of approximately 10 MBq for 10 minutes. After the imaging study, region-of-interest (ROI) analysis was performed and activity in tumor, liver and kidney was determined. […] High tumor uptake values of >1% […] in this rat model were obtained with various compounds from the present invention. A favorable clearance profile of all compounds enables excellent tumor detection in PET imaging studies in tumor bearing rats.

Data set [4] deals with NCI-H460 (human NSCLC) cells. Put plainly: Cell uptake studies: 30 min uptake in H460 cells. It is filed as cell-based. The settings on record: 0.25 MBq tracer, PBS 0.1% BSA. Here is the method: For determination of the biological activity, the F18 labeled derivatives were used as tracers in cell uptake experiments. NCI-H460 (human NSCLC) cells, grown adherently in 48 well plates were used for these uptake-experiments. Approximately 100.000 cells were incubated with 0.25 MBq of the tracers for 30 min in PBS-buffer containing 0.1% BSA. After this time, the cell-bound radioactivity was determined using a γ-counter.

This note sets out measurements from patent publication US9238631B2, “Radiolabeled amino acids for diagnostic imaging” (PIRAMAL IMAGING SA, priority 2011, dated 2016).

Turning to `N[C@H](CCC(=O)O)C(=O)O` [D-Glutamic acid, reference compound], the “reduction of [^18F]-12 uptake by excess competitor” value (“reduction of [^18F]-12 uptake” for short) on xCT (SLC7A11) is on record as “less effective competitors”.

With `N[C@@H](C[C@H](Cc1ccc(OCCF)cc1)C(=O)O)C(=O)O` [Example 1, (4S)-4-[4-(2-Fluoroethoxy)benzyl]-L-glutamic acid], the “Uptake of radiolabeled glutamate-derivative (% of control)” value (“Uptake … (% of control)” below) in data set [1] is recorded as 5.0 ± 0.2 % of control.

For `N[C@@H](CSSC[C@H](N)C(=O)O)C(=O)O` [L-cystine, reference compound], the “Uptake … (% of control)” value in data set [1] was 10.7 ± 0.7 % of control.

For `N[C@@H](CCC(Cc1ccc(OCCF)cc1)C(=O)O)C(=O)O` (stereo partly drawn) [Example 12, (2S)-2-Amino-5-[4-(2-Fluoroethoxy)benzyl]-hexanedioic acid], the “Uptake … (% of control)” value in data set [1] is reported as 3.9 ± 0.3 % of control.

Turning to `N[C@@H](CCC(Cc1ccc(OC[18F])cc1)C(=O)O)C(=O)O` (single isomer, unassigned) [[^18F]-41 C5-2], in the data set on NCI-H460 tumor [2], the “Kidney (% ID/g at 1 h p.i.)” value amounted to 2.4 ± 0.8 % ID/g, the “Liver (% ID/g at 1 h p.i.)” value is on record as 0.3 ± 0.1 % ID/g, the “Pancreas (% ID/g at 1 h p.i.)” value is on record as 1.1 ± 0.2 % ID/g and the “Tumor (% ID/g at 1 h p.i.)” value was determined as 8.7 ± 1.9 % ID/g. Moreover, in the data set with NCI-H460 tumor [2], the “Urine (% ID at 1 h p.i.)” value is recorded as 83.5 ± 5.1 % ID, the T/Blood is 36.0 and the T/Muscle was 107.3. For the same compound, in the data set with NCI-H460 tumor [3], the “Kidney (% ID/g at 1 h p.i.)” value came out at 0.2 % ID/g, the “Liver (% ID/g at 1 h p.i.)” value came to 0.2 % ID/g, the “Tumor (Max % ID/g at 1 h p.i.)” value is listed as 4.4 % ID/g and the “Tumor (Mean % ID/g at 1 h p.i.)” value was 2.0 % ID/g.

With `N[C@H](C[C@@H](Cc1ccc(OCCCF)cc1)C(=O)O)C(=O)O` [Example 24, (4R)-4-[4-(3-Fluoropropoxy)benzyl]-D-glutamic acid], the “Uptake … (% of control)” value in data set [1] is on record as 36.5 ± 3.8 % of control.

For the compound `N[C@@H](C[C@H](CCCc1ccc(OCCF)cc1)C(=O)O)C(=O)O` [Example 25, (4S)-4-{3-[4-(2-Fluoroethoxy)phenyl]propyl}-L-glutamic acid], the “Uptake … (% of control)” value in data set [1] is listed as 20.1 ± 0.4 % of control.

Turning to `N[C@@H](CC(Cc1ccc(NCCC[18F])cc1)C(=O)O)C(=O)O` (stereo partly drawn) [[^18F]-8, 4-{4-[(3-[^18F]Fluoropropyl)amino]benzyl}-L-glutamic acid], in data set [4], the “30 min uptake into H460 cells [%/100.000 cells]” value turned out to be 15.3 ± 0.1 %/100.000 cells. Besides, the “competition profile / uptake mechanism of the tracer” value at xCT (SLC7A11) (co-incubation with 1 mM cold competitors) was “identical competition profile”. Further, in the data set with NCI-H460 tumor [2], the “Kidney (% ID/g at 1 h p.i.)” value was found to be 2.8 ± 0.6 % ID/g, the “Liver (% ID/g at 1 h p.i.)” value amounted to 1.3 ± 0.3 % ID/g, the “Pancreas (% ID/g at 1 h p.i.)” value worked out at 2.2 ± 0.4 % ID/g and the “Tumor (% ID/g at 1 h p.i.)” value was found to be 4.6 ± 0.9 % ID/g. In the data set on NCI-H460 tumor [2], the “Urine (% ID at 1 h p.i.)” value is 92.7 ± 3.8 % ID, the T/Blood was 26.8 and the T/Muscle is 46.3.

As for `N[C@H](CC(=O)O)C(=O)O` [D-aspartic acid, reference compound], the “reduction of [^18F]-12 uptake” value on xCT (SLC7A11) was “less effective competitors”.

As to `N[C@H](CCC(Cc1ccc(OCC[18F])cc1)C(=O)O)C(=O)O` (stereo partly drawn) [[^18F]-16, (2R)-2-Amino-5-[4-(2-[^18F]fluoroethoxy)benzyl]hexanedioic acid], in the data set on NCI-H460 tumor [2], the “Kidney (% ID/g at 1 h p.i.)” value is on record as 3.4 ± 0.3 % ID/g, the “Liver (% ID/g at 1 h p.i.)” value amounted to 3.3 ± 0.1 % ID/g, the “Pancreas (% ID/g at 1 h p.i.)” value is 1.4 ± 0.1 % ID/g and the “Tumor (% ID/g at 1 h p.i.)” value is recorded as 3.6 ± 0.6 % ID/g. Further, in the data set on NCI-H460 tumor [2], the “Urine (% ID at 1 h p.i.)” value is given as 74.5 ± 6.8 % ID, the T/Blood worked out at 14.1 and the T/Muscle was 54.2. In addition, in the data set with NCI-H460 tumor [3], the “Kidney (% ID/g at 1 h p.i.)” value worked out at 1.7 % ID/g, the “Liver (% ID/g at 1 h p.i.)” value is reported as 2.3 % ID/g, the “Tumor (Max % ID/g at 1 h p.i.)” value stood at 2.1 % ID/g and the “Tumor (Mean % ID/g at 1 h p.i.)” value is 0.8 % ID/g.

As to `N[C@@H](CC(=O)O)C(=O)O` [L-aspartic, L-aspartic acid, reference compound], the “reduction of [^18F]-12 uptake” value on xCT (SLC7A11) is on record as “less effective competitors”.

In the case of `N[C@@H](CCC(=O)O)C(=O)O` [L-glutamic acid, L-glutamate, reference compound], the “Uptake … (% of control)” value in data set [1] is 26.1 ± 0.3 % of control.

As for `N[C@@H](CC(Cc1ccc(CCCF)cc1)C(=O)O)C(=O)O` (stereo partly drawn) [Example 9, 4-[4-(3-Fluoropropyl)benzyl]-L-glutamic acid], the “Uptake … (% of control)” value in data set [1] was 14.2 ± 1.0 % of control.

Consider `N[C@@H](CC(CCCc1ccc(CCCF)cc1)C(=O)O)C(=O)O` (stereo partly drawn) [Example 19, 4-{3-[4-(3-Fluoropropyl)phenyl]propyl}-L-glutamic acid], for which the “Uptake … (% of control)” value in data set [1] is 6.6 ± 1.6 % of control.

Regarding `N[C@H](C[C@@H](Cc1ccc(OCCF)cc1)C(=O)O)C(=O)O` [Example 23, (4R)-4-[4-(2-Fluoroethoxy)benzyl]-D-glutamic acid], in data set [1], the “Uptake … (% of control)” value is given as 43.8 ± 3.2 % of control.

For the compound `N[C@@H](C[C@H](Cc1ccc(OCCCF)cc1)C(=O)O)C(=O)O` [Example 4, (4S)-4-[4-(3-Fluoropropoxy)benzyl]-L-glutamic acid], the “Uptake … (% of control)” value in data set [1] was 3.0 ± 0.1 % of control.
